4 compounds from paper PMC3800266 (Journal of the American Chemical Society, 2013) can be followed below.

Values after ≈ are worked out from the molar mass of the structure shown.

The subject of assay [1] is vancomycin-resistant enterococci (VanB), ATCC 51299. Put plainly: microbe, parasite or virus in culture. To be noted: Enterococcus, ATCC51299|VRE, read-out: MIC, VRE (VanB).
The test system of assay [2] is VRE (VanA), MMX 486. The assay can be described thus: microbe, parasite or virus in culture. The note with it: Enterococcus, read-out: MIC, VRE (VanA).
Assay [3] deals with vancomycin-susceptible enterococci, ATCC 29212. The assay can be described thus: organism not typed. To be noted: read-out: MIC, VSE.
The subject of assay [4] is methicillin-susceptible S. aureus, ATOC 29213.
Assay [5] concerns methicillin-resistant S. aureus, ATCC 43300.
Assay [6] deals with vancomycin-resistant enterococci (VanB), ATCC 51299. To be noted: teicoplanin susceptible.
Assay [7] relates to VRE (VanA), MMX 486. To be noted: vancomycin and teicoplanin resistant.
In assay [8] the test system is vancomycin-susceptible enterococci, ATCC 29212.

With `CC(=O)NC[C@H]1CN(c2ccc(N3CCOCC3)c(F)c2)C(=O)O1` [Linezolid], the MIC in assay [1] was 2 µg/mL (≈ 5.93 µM); in the assay on VRE (VanA), MMX 486 [2], 2 µg/mL (≈ 5.93 µM); in assay [3], 2 µg/mL (≈ 5.93 µM).
As to `CN[C@H](CC(C)C)C(=O)N[C@H]1C(=O)N[C@@H](CC(N)=O)C(=O)N[C@H]2C(=O)N[C@H]3C(=O)N[C@H](C(=O)N[C@H](C(=O)O)c4cc(O)cc(O)c4-c4cc3ccc4O)[C@H](O)c3ccc(c(Cl)c3)Oc3cc2cc(c3O[C@@H]2O[C@H](CO)[C@@H](O)[C@H](O)[C@H]2O[C@H]2C[C@](C)(N)[C@H](O)[C@H](C)O2)Oc2ccc(cc2Cl)[C@H]1O` [Vancomycin], the “MIC, MSSA” value in assay [4] worked out at 0.5 µg/mL (≈ 0.345 µM). In assay [5], the “MIC, MRSA” value turned out to be 1 µg/mL (≈ 0.69 µM). In addition, the “MIC, VRE (VanB)” value in assay [6] worked out at 16 µg/mL (≈ 11 µM). In the assay on VRE (VanA), MMX 486 [7], the “MIC, VRE (VanA)” value is >64 µg/mL. In addition, the “MIC, VSE” value in assay [8] turned out to be 2 µg/mL (≈ 1.38 µM).
Consider Teicoplanin, for which the “MIC, MSSA” value in assay [4] came out at 0.5 µg/mL. Moreover, the “MIC, MRSA” value in assay [5] amounted to 0.5 µg/mL. Moreover, the “MIC, VRE (VanB)” value in assay [6] amounted to 0.25 µg/mL. Further, the “MIC, VRE (VanA)” value against VRE (VanA), MMX 486 [7] was >64 µg/mL. Also, in assay [8], the “MIC, VSE” value was 0.25 µg/mL.
As for teicoplanin A2-2, in assay [4], the “MIC, MSSA” value turned out to be 0.5 µg/mL. The “MIC, MRSA” value in assay [5] amounted to 0.5 µg/mL. The “MIC, VRE (VanB)” value in assay [6] came out at 0.25 µg/mL. Moreover, the “MIC, VRE (VanA)” value in the assay on VRE (VanA), MMX 486 [7] is >64 µg/mL. For the same compound, in assay [8], the “MIC, VSE” value came out at 0.25 µg/mL.
